Measurements published in PubChem BioAssay AID248 (DTP/NCI, 2004).
Where “and” joins values, the source holds several entries; their conditions need not be identical. Identical values can stand only once. Inconclusive results and toxic doses are left out. No stated cut-off is given here; in the data, active means T/C of 150% or more; inactive means T/C below 125%.

Tested on: L1210 leukemia ip in BDF1 mice, survival T/C
Experiment: NCI In Vivo Anticancer Drug Screen. Data for tumor model L1210 Leukemia (intraperitoneal) in B6D2F1 (BDF1) mice
Settings: endpoint: mean survival time, higher = longer survival
Summary of the method: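 Antitumor effect is assessed in tumor-bearing animals. Survival in the compound arm is compared with a vehicle-dosed control arm and expressed as their quotient.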

[1] = dose: 100.0 mg/kg/injection, schedule: Q01DX001 (ip), vehicle: saline with Tween-80
[2] = dose: 200.0 mg/kg/injection, schedule: Q01DX001 (ip), vehicle: saline with Tween-80
[3] = dose: 400.0 mg/kg/injection, schedule: Q01DX001 (ip), vehicle: saline with Tween-80
[4] = dose: 50.0 mg/kg/injection, schedule: Q01DX009 (ip), vehicle: saline
[5] = dose: 50.0 mg/kg/injection, schedule: Q01DX009 (ip), vehicle: Klucel (hydroxypropylcellulose) (HPC)
[6] = dose: 100.0 mg/kg/injection, schedule: Q01DX009 (ip), vehicle: Klucel (hydroxypropylcellulose) (HPC)
[7] = dose: 100.0 mg/kg/injection, schedule: Q04DX003 (ip), vehicle: Klucel (hydroxypropylcellulose) (HPC)
[8] = dose: 200.0 mg/kg/injection, schedule: Q01DX009 (ip), vehicle: Klucel (hydroxypropylcellulose) (HPC)
[9] = dose: 200.0 mg/kg/injection, schedule: Q04DX003 (ip), vehicle: Klucel (hydroxypropylcellulose) (HPC)
[10] = dose: 400.0 mg/kg/injection, schedule: Q01DX009 (ip), vehicle: Klucel (hydroxypropylcellulose) (HPC)
[11] = dose: 400.0 mg/kg/injection, schedule: Q04DX003 (ip), vehicle: Klucel (hydroxypropylcellulose) (HPC)
[12] = dose: 100.0 mg/kg/injection, schedule: Q01DX001 (ip), vehicle: saline
[13] = dose: 100.0 mg/kg/injection, schedule: Q01DX009 (ip), vehicle: saline
[14] = dose: 200.0 mg/kg/injection, schedule: Q01DX001 (ip), vehicle: saline
[15] = dose: 200.0 mg/kg/injection, schedule: Q01DX009 (ip), vehicle: saline
[16] = dose: 400.0 mg/kg/injection, schedule: Q01DX001 (ip), vehicle: saline
[17] = dose: 100.0 mg/kg/injection, schedule: Q04DX002 (ip), vehicle: saline with Tween-80
[18] = dose: 200.0 mg/kg/injection, schedule: Q04DX002 (ip), vehicle: saline with Tween-80
[19] = dose: 50.0 mg/kg/injection, schedule: Q01DX001 (ip), vehicle: saline
[20] = dose: 100.0 mg/kg/injection, schedule: Q04DX003 (ip), vehicle: saline with Tween-80
[21] = dose: 200.0 mg/kg/injection, schedule: Q04DX003 (ip), vehicle: saline with Tween-80
[22] = dose: 400.0 mg/kg/injection, schedule: Q04DX002 (ip), vehicle: saline with Tween-80
[23] = dose: 400.0 mg/kg/injection, schedule: Q04DX003 (ip), vehicle: saline with Tween-80
[24] = dose: 100.0 mg/kg/injection, schedule: Q01DX001 (ip), vehicle: carboxymethylcellulose (CMC)
[25] = dose: 100.0 mg/kg/injection, schedule: Q01DX009 (ip), vehicle: saline with Tween-80
[26] = dose: 200.0 mg/kg/injection, schedule: Q01DX009 (ip), vehicle: saline with Tween-80

Measured: T/C

OCc1c2ccccc2cc2ccccc12
inactive: [1] 93 % of control | [2] 87 % of control | [3] 93 % of control

CCCCCC[Se]CCCCCC
inactive: dose: 12.5 mg/kg/injection, schedule: Q01DX009 (ip), vehicle: saline 98 % of control | dose: 25.0 mg/kg/injection, schedule: Q01DX009 (ip), vehicle: saline 96 % of control | dose: 25.0 mg/kg/injection, schedule: Q04DX003 (ip), vehicle: saline 101 % of control | [4] 93 % of control and 102 % of control | dose: 50.0 mg/kg/injection, schedule: Q04DX003 (ip), vehicle: saline 97 % of control | dose: 100.0 mg/kg/injection, schedule: Q04DX003 (ip), vehicle: saline 98 % of control and 100 % of control

CN1CN(c2ccccc2)CSC1=S
inactive: [5] 102 % of control | [6] 107 % of control | [7] 94 % of control | [8] 95 % of control | [9] 89 % of control

Cc1cc(C)c2c(c1)CCc1cc(C)cc(C)c1-2
inactive: [6] 100 % of control | [7] 93 % of control | [8] 93 % of control | [9] 93 % of control | [10] 100 % of control | [11] 93 % of control

c1ccc(-c2nc3ccccn3n2)cc1
inactive: dose: 100.0 mg/kg/injection, schedule: Q01DX001 (ip), vehicle: Klucel (hydroxypropylcellulose) (HPC) 101 % of control | dose: 200.0 mg/kg/injection, schedule: Q01DX001 (ip), vehicle: Klucel (hydroxypropylcellulose) (HPC) 95 % of control | dose: 400.0 mg/kg/injection, schedule: Q01DX001 (ip), vehicle: Klucel (hydroxypropylcellulose) (HPC) 103 % of control

CC(C)=CCC/C(C)=C/CN1C(=O)CN(C)C1=O
inactive: [4] 98 % of control | [12] 100 % of control | [13] 101 % of control | [14] 103 % of control | [15] 98 % of control | [16] 100 % of control

NNP(=O)(N1CCCCC1)N1CCCCC1
inactive: [17] 90 % of control | [18] 97 % of control

Cn1c(=O)c2[nH]c(-c3ccc([N+](=O)[O-])cc3)nc2n(C)c1=O
inactive: [19] 98 % of control | [12] 93 % of control | [14] 96 % of control | [16] 93 % of control

O=C(O)c1ccc([N+](=O)[O-])cc1C(=O)O
inactive: dose: 87.5 mg/kg/injection, schedule: Q01DX001 (ip), vehicle: saline 104 % of control | [13] 100 % of control | [7] 96 % of control | dose: 175.0 mg/kg/injection, schedule: Q01DX001 (ip), vehicle: saline 100 % of control | [15] 93 % of control | [9] 87 % of control | dose: 350.0 mg/kg/injection, schedule: Q01DX001 (ip), vehicle: saline 108 % of control

Fc1c(F)c(F)c(Oc2nc(Oc3c(F)c(F)c(F)c(F)c3F)nc(-c3ccccc3)n2)c(F)c1F
inactive: dose: 25.6 mg/kg/injection, schedule: Q04DX002 (ip), vehicle: saline with Tween-80 91 % of control | dose: 64.0 mg/kg/injection, schedule: Q04DX002 (ip), vehicle: saline with Tween-80 102 % of control | [20] 92 % of control | dose: 160.0 mg/kg/injection, schedule: Q04DX002 (ip), vehicle: saline with Tween-80 94 % of control | [21] 92 % of control | [22] 105 % of control | [23] 87 % of control

Cc1ccc(C)n1-c1ccccc1C(=O)O
inactive: [6] 95 % of control | [7] 93 % of control | [8] 107 % of control | [9] 106 % of control | [10] 101 % of control | [11] 101 % of control

Cc1cc2c(cc1C)C(=O)C(=O)N2
inactive: [19] 98 % of control | [12] 107 % of control | [14] 104 % of control | [16] 98 % of control

COc1ccc(Oc2ccc(-c3ccccc3)cc2)cc1
inactive: [24] 98 % of control | dose: 200.0 mg/kg/injection, schedule: Q01DX001 (ip), vehicle: carboxymethylcellulose (CMC) 102 % of control | dose: 400.0 mg/kg/injection, schedule: Q01DX001 (ip), vehicle: carboxymethylcellulose (CMC) 96 % of control

O=C(O)CC(NC(=O)OCc1ccccc1)c1ccc(Cl)cc1 (configuration not stated)
inactive: [1] 90 % of control | [25] 100 % of control and 112 % of control | [17] 103 % of control | [20] 101 % of control | [2] 94 % of control | [26] 93 % of control and 102 % of control | [18] 103 % of control | [21] 93 % of control | [3] 101 % of control | [22] 92 % of control | [23] 101 % of control

O=C1c2ccccc2-c2ccc(-c3ccccc3)c3cccc1c23
inactive: dose: 50.0 mg/kg/injection, schedule: Q04DX002 (ip), vehicle: Klucel (hydroxypropylcellulose) (HPC) 105 % of control | dose: 100.0 mg/kg/injection, schedule: Q04DX002 (ip), vehicle: Klucel (hydroxypropylcellulose) (HPC) 102 % of control | dose: 200.0 mg/kg/injection, schedule: Q04DX002 (ip), vehicle: Klucel (hydroxypropylcellulose) (HPC) 98 % of control | [18] 105 % of control | [22] 98 % of control

OCC(O)COc1ccc(OCc2ccccc2)cc1 (configuration not stated)
inactive: dose: 12.5 mg/kg/injection, schedule: Q01DX009 (ip), vehicle: Klucel (hydroxypropylcellulose) (HPC) 94 % of control | dose: 25.0 mg/kg/injection, schedule: Q01DX009 (ip), vehicle: Klucel (hydroxypropylcellulose) (HPC) 102 % of control | [5] 93 % of control and 87 % of control

CCCCC(CC)C(O)C1CCCCC1O (configuration not stated)
inactive: [6] 102 % of control | [7] 101 % of control | [8] 96 % of control | [9] 96 % of control | [10] 86 % of control | [11] 102 % of control

Cc1ccc(N=Nc2ccc(C)cc2NC(=O)c2ccc(Cl)cc2Cl)cc1
inactive: [6] 88 % of control | [8] 97 % of control | [10] 89 % of control

O=C(C(=Nc1ccc(Br)cc1)C(Nc1ccc(Br)cc1)C(=O)c1ccccc1)c1ccccc1 (configuration not stated)
inactive: [12] 96 % of control | [14] 91 % of control | [16] 94 % of control

CCOc1ccc2c(ccc(/C=C\c3cc(C)c4cccnc4c3O)[n+]2C)c1
inactive: dose: 25.0 mg/kg/injection, schedule: Q01DX001 (ip), vehicle: carboxymethylcellulose (CMC) 104 % of control | dose: 50.0 mg/kg/injection, schedule: Q01DX001 (ip), vehicle: carboxymethylcellulose (CMC) 109 % of control | [24] 93 % of control

CCCCCCC(C)O[Si](C)c1ccc(-c2ccccc2)cc1 (configuration not stated)
inactive: [25] 100 % of control | [20] 93 % of control | [26] 105 % of control | [21] 94 % of control | dose: 400.0 mg/kg/injection, schedule: Q01DX009 (ip), vehicle: saline with Tween-80 102 % of control | [23] 100 % of control
